Like-named read-outs stand apart in the source and are kept apart here.
Columns and labels:
[1] = test system: extension templates (TT, TA, TC, and TG); assay: Nucleotide imbalance fidelity assay (rare base titration, NGS readout); format: biochemical
Description: Extension templates (TT, TA, TC, and TG) were designed for all four rare base contexts (Table 2). Templates were 100 bp in length and contained a single T, A, C, or G, or Error-Enriched Site (EES), near the middle of the template. Extension templates were designed to contain only three bases, with the exception of the EES (fourth base) and the extension primer-binding site. For each template type, the EES was flanked by 3 degenerate bases before the EES and 3 degenerate bases after the EES in order to create the following sequence context libraries: VVVTVVV, BBBABBB, DDDCDDD, and HHHGHHH (using IUPAC ambiguity codes). Because each of the 6 degenerate sites can be composed of 3 possible bases, each template library contained 729 (3^6) unique sequence contexts surrounding the EES. With the exception of the 6 bases flanking the EES, template sequences within a given library were identical. All templates contained a 3′ dideoxy-C modification to prevent extension from the template strand during a final PCR amplification step. Extension templates were purified via PAGE (Integrated DNA Technologies).
Individual annealing reactions were performed for each template type (TT, TA, TC, TG). Primer/template DNA was prepared by mixing PEXT with each template library in a 1:1.5 molar ratio (70 nM primer: 105 nM template) in a 1× reaction buffer specific to each DNA polymerase being tested (Table 1). The extension primer was annealed to template DNA by incubation at 95° C. for 2 minutes, followed by a −0.1° C./sec ramp until reaching 4° C.
Primer extension reactions were set up in duplicate for each condition being tested. Biological replicate reactions were performed in parallel, with the same annealed primer/template sample used for both replicates. For each DNA polymerase and rare base context of interest, 9 rare base concentrations were tested (log-fold dilutions from 10 μM-0.1 pM) while the concentration of the 3 non-rare bases was held constant at 10 μM (Bioline).
Primer extension reactions consisted of 1 μL of annealing reaction, 1× dNTP stocks ([…]+variable [dRTP]), variable DNA polymerase units, and 1×DNA polymerase reaction buffer in a 10 μL reaction. Extension reaction conditions for DNA polymerases tested are described in Table 1. Extension reactions were incubated for 1 hour and stored at −20° C. until purification. The Fluent Automated Liquid Handling Platform (Tecan) was used to set up all primer extension reactions.
The sample preparation pipeline for NGS was adapted from a previous protocol (Ref. 28; herein incorporated by reference in its entirety). Products from individual rare base extension reactions were column purified in 96-well plate format using the ZR-96 DNA Clean & Concentrator-5 (Deep well format) kit (Zymo Research). Purified DNA products were eluted in 10 μL of water and stored at −20° C. until ligation. Next, a 22 bp universal tag, common sequence 2 (CS2) of the Fluidigm Access Array Barcode Library for Illumina Sequencers (Fluidigm), synthesized as duplex DNA with a 5′ phosphate modification and PAGE purified (Integrated DNA Technologies, Table 2) was blunt-end ligated to the 3′ end of extended products. Ligation reactions were carried out in 10 μL volumes and consisted of 6 μL of purified product, 30 nM CS2 duplex DNA, 1× T4 DNA Ligase Reaction Buffer (New England Biolabs), and 2000 Units of T4 DNA Ligase (New England Biolabs). Ligation reactions were incubated at 16° C. for 16 hours. Ligated products were stored at −20° C. until PCR.
PCR was performed with barcoded primer sets from the Access Array Barcode Library for Illumina Sequencers (Fluidigm) to label extension products from up to 384 individual reactions. Each PCR primer set contained a unique barcode in the reverse primer. From 5′-3′, the forward PCR primer (PE1_CS1) contained a 25 base paired-end Illumina adapter 1 sequence followed by CS1. The binding target of the forward PCR primer was the reverse complement of the CS1 tag built into PEXT. […]

[2] = previously reported; cited from earlier work
[3] = previously reported; cited from earlier work; remark: listed apart in the source
[4] = previously reported; cited from earlier work; remark: listed apart in the source
[5] = previously reported; cited from earlier work; remark: listed apart in the source
[6] = previously reported; cited from earlier work; remark: listed apart in the source
[7] = previously reported; cited from earlier work; remark: listed apart in the source
lacZ template = conditions: cited from earlier work
[8] = "C" template context, lowest [dRTP] tested (10^−7 μM)
[9] = All Four Contexts, fit of duplicate data from all four template contexts (n = 8), average FC50
[10] = BBBABBB template context, n = 2
[11] = DDDCDDD template context, n = 2
[12] = HHHGHHH template context, n = 2
[13] = VVVTVVV template context, n = 2

## Phi29: high fidelity polymerase with proofreading ability (New England Biolabs)
[1]; [8]
  preferred error type: C:dTTP
[1]; [9]
  FC50: 0.000861 µM
[1]; [10]
  FC50: 0.000877 µM
[1]; DDDCDDD context, −1 G
  preferred error type: C:dATP
[1]; DDDCDDD context, −1 T
  preferred error type: C:dTTP
[1]; [11]
  FC50: 0.00125 µM
[1]; [12]
  FC50: 0.00139 µM
[1]; [13]
  FC50: 0.000475 µM
[1]; average FC50 converted with Equation 9
  estimated (FC50-derived) error rate versus mean of the two reported literature error rates: 2.7 fold
[2]
  Error Rate: 0.0000095 errors/bp
[3]
  Error Rate: 0.000003 errors/bp

## Taq: widely used commercial DNA polymerase (New England Biolabs)
[1]; "A" template context, lowest [dRTP] tested (10^−7 μM)
  preferred error type: A:dATP
[1]; [8]
  preferred error type: C:dATP
[1]; "G" template context, lowest [dRTP] tested (10^−7 μM)
  preferred error type: G:dTTP
[1]; [9]
  FC50: 0.00267 µM
[1]; [10]
  FC50: 0.00261 µM
[1]; [11]
  FC50: 0.00215 µM
[1]; [12]
  FC50: 0.00208 µM
[1]; [13]
  FC50: 0.00405 µM
[4]
  Error Rate: 0.00021 errors/bp
[5]
  Error Rate: 0.00011 subs/bp
[6]
  Error Rate: 0.0002 subs/bp
[7]
  Error Rate: 0.00018 errors/bp

B1: Sulfolobus solfataricus Dpo4: a close homologue of S. islandicus Dpo4, literature data (protein, UniProt Q97W02 1-352, looked up)
DNA polymerase IV: MIVLFVDFDYFYAQVEEVLNPSLKGKPVVVCVFSGRFEDSGAVATANYEARKFGVKAGIPIVEAKKILPNAVYLPMRKEVYQQVSSRIMNLLREYSEKIEIASIDEAYLDISDKVRDYREAYNLGLEIKNKILEKEKITVTVGISKNKVFAKIAADMAKPNGIKVIDDEEVKRLIRELDIADVPGIGNITAEKLKKLGINKLVDTLSIEFDKLKGMIGEAKAKYLISLARDEYNEPIRTRVRKSIGRIVTMKRNSRNLEEIKPYLFRAIEESYYKLDKRIPKAIHVVAVTEDLDIVSRGRTFPHGISKETAYSESVKLLQKILEEDERKIRRIGVRFSKFIEAIGLDKFFDT
lacZ template; at A sites
  error preferences: A:dATP>A:dCTP>A:dGTP
lacZ template; at C sites
  error preferences: C:dCTP>C:dATP=C:dTTP
lacZ template; at G sites
  error preferences: G:dTTP>G:dGTP>G:dATP
lacZ template; at T sites
  error preferences: T:dGTP>T:dCTP T:dTTP

— patent US11613775B2, “Measuring DNA polymerase fidelity” (Northwestern University, priority 2017, dated 2023)
